# Laboratory results as given in US20110288101A1, “SURGICAL CO[…]-RECEPTOR AGONISTS” (ALCON RESEARCH, LTD., priority 2010, published 2011).
# Tested on: rabbit corneal endothelial cells
# Assay: MTS cell viability assay, protection against hydrogen peroxide oxidative stress
# Type: cell-based
# Conditions: rabbit corneal endothelial cells in serum-free medium; 70 μM H2O2; 24 hours; 1 to 300 μM (+)-pentazocine; p<0.05 vs H2O2 control; FIG. 1
# Experimental: Studies were performed to determine whether (+)-pentazocine can protect corneal endothelial cells. Hydrogen peroxide was employed to produce oxidative stress to rabbit corneal endothelial cells in vitro.
# Briefly, rabbit corneal endothelial cells maintained in serum-free medium were treated with the sigma-1 receptor agonist (+)-pentazocine and 70 μM H2O2 for 24 hours. At the end point, a cell viability assay (MTS assay) is performed. The MTS assay is a laboratory test and standard colorimetric assay for measuring the activity of enzymes that reduce MTS+PMS to formazan, producing a purple color. MTS (3-(4,5-dimethylthiazol-2-yl)-5-(3-carboxymethoxyphenyl)-2-(4-sulfophenyl)-2H-tetrazolium), in the presence of phenazine methosulfate (PMS), produces a water-soluble formazan product that has an absorbance maximum at 490-500 nm in phosphate-buffered saline. These reduction reactions take place only when reductase enzymes are active, and the production of formazan product is therefore used as a measure of cell viability.
# Lower absorbance numbers correlate to reduced cell viability.
smiles,measurement,value
"CC(C)=CCN1CCC2(C)c3cc(O)ccc3CC1C2C (single isomer, unassigned; (+)) [(+)-pentazocine]",protection of cell viability (MTS absorbance) against damage induced by hydrogen peroxide,dose-dependent protection
